Values after ≈ are worked out from the molar mass of the structure shown. Where two headings read alike, the source gives them in different places.

One assay concerns E. faecalis^LinR. Nature of the assay: MIC by broth microdilution (aerobic pathogens), test strain 9. It is filed as cell-based, Linezolid resistant Enterococcus faecalis. Conditions: Enterococcus faecalis. The procedure, abridged:
(§1)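 MIC values come from a CLSI-standard broth microdilution method against a 13-strain panel spanning susceptible and vancomycin- or methicillin-resistant staphylococci and enterococci; 90% inhibition versus untreated growth defined the endpoint.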
Background: In broth dilution the organism is exposed to a series of concentrations in liquid medium.

The test system of a further assay is C. difficile 173. The experiment in a line: MIC by agar dilution against Clostridioides difficile, test strain 17. Type of assay: cell-based.
The next assay relates to E. faecalis^VanA. Nature of the assay: MIC by broth microdilution (aerobic pathogens), test strain 8. It is filed as cell-based, Vancomycin resistant Enterococcus faecalis. The conditions noted are these: Enterococcus faecalis. In a few lines: as §1
A further assay deals with C. difficile 152. Nature of the assay: MIC by agar dilution against Clostridioides difficile, test strain 14. It is filed as cell-based. A general note: In agar dilution the substance is mixed into plates at graded concentrations.
The test system of a further assay is M. avium. The experiment in a line: MIC by resazurin (REMA) assay against Mycobacterium, test strain 21. It is filed as cell-based. How it is done:
(§2) In order to test the antibacterial activity, the medium of Mycobacterium cultured to late log phase was diluted so as to be 4.0×10^5 cells/well in Middlebrook 7H10 agar medium (Difco) supplemented with 10% oleic acid, albumin, dextrose, catalase (OADC, Becton Dickinson) and 0.05% Tween 80 (Sigma Aldrich) and was dispensed into a 96-well plate. The compounds were treated so that DMSO was 1%, and after 3 days, a 0.025% resazurin (REMA) solution was dispensed, and the growth of the bacteria was confirmed after culturing. The MIC value was measured for the antibacterial activity through resazurin (excitation 530 nm, emission 590 nm).

In a further assay the test system is C. difficile 9689. The experiment in a line: MIC by agar dilution against Clostridioides difficile, test strain 13. Type of assay: cell-based.
A further assay concerns C. difficile 174. The experiment in a line: MIC by agar dilution against Clostridioides difficile, test strain 18. Type of assay: cell-based.
A further assay concerns C. difficile 181. The experiment in a line: MIC by agar dilution against Clostridioides difficile, test strain 19. Conditions: 181. Type of assay: cell-based.
A further assay has as its system M. abscessus. The experiment in a line: MIC by resazurin (REMA) assay against Mycobacterium, test strain 23. Conditions: Mycobacteroides abscessus. Type of assay: cell-based. How it is done:
as §2
(Alamar Blue is a resazurin reagent that responds to reducing activity.)

A further assay relates to C. difficile 159. Nature of the assay: MIC by agar dilution against Clostridioides difficile, test strain 15. Type of assay: cell-based. Conditions: 159.
The next assay relates to M. intracelluare. The experiment in a line: MIC by resazurin (REMA) assay against Mycobacterium, test strain 22. Conditions: Mycobacterium intracellulare. Type of assay: cell-based. How it is done: as §2
The next assay relates to S. epidermis. The experiment in a line: MIC by broth microdilution (aerobic pathogens), test strain 5. Type of assay: cell-based. Conditions: Staphylococcus epidermidis. In a few lines:
as §1

The subject of another assay is S. aureus^VR. The experiment in a line: MIC by broth microdilution (aerobic pathogens), test strain 4. It is filed as cell-based, Vancomycin resistant Staphylococcus aureus. Conditions: Staphylococcus aureus. The procedure, abridged:
as §1

The test system of a further assay is E. faecalis. Nature of the assay: MIC by broth microdilution (aerobic pathogens), test strain 7. It is filed as cell-based. The conditions noted are these: Enterococcus faecalis. In a few lines: as §1
For a further assay, the system named is E. faecium. The experiment in a line: MIC by broth microdilution (aerobic pathogens), test strain 10. Type of assay: cell-based. Conditions: Enterococcus faecium. In a few lines:
as §1

In the next assay the test system is S. epidermis^MR. Nature of the assay: MIC by broth microdilution (aerobic pathogens), test strain 6. Type of assay: cell-based, Methicillin resistant Staphylococcus epidermidis. Conditions: Staphylococcus epidermidis. The procedure, abridged:
as §1

In assay [1] the test system is S. aureus^MS. Nature of the assay: MIC by broth microdilution (aerobic pathogens), test strain 1. Type of assay: cell-based. The conditions noted are these: Staphylococcus aureus. In a few lines:
as §1

Another assay concerns E. faecium^LinR. Nature of the assay: MIC by broth microdilution (aerobic pathogens), test strain 12. Type of assay: cell-based, Linezolid resistant Enterococcus faecium. The conditions noted are these: Enterococcus faecium. In a few lines:
as §1

A further assay relates to S. aureus^MR. The experiment in a line: MIC by broth microdilution (aerobic pathogens), test strain 3. It is filed as cell-based, Methicillin resistant Staphylococcus aureus. The conditions noted are these: Staphylococcus aureus. How it is done: The antibacterial activity of the compounds of Examples 1 to 48 of the present invention against aerobic pathogens were evaluated by measuring the minimum concentration of the antibiotic capable of inhibiting bacterial growth by 90% compared to the growth of the non-drug treated control group. MIC was measured by the broth microdilution method based on CLSI standards [Reference: Clinical and Laboratory Standards Institute Document. (2000) Methods for Dilution Antimicrobial Susceptibility Test for Bacteria that Grow Aerobically-Fifth Edition: M7-A5. CLSI, Villanova, PA].
All 13 strains such as methicillin susceptible Staphylococcus aureus (MSSA), methicillin resistant Staphylococcus aureus (MRSA), Vancomycin resistant Staphylococcus aureus (VRSA), Staphylococcus epidermidis, methicillin resistant Staphylococcus epidermidis, Enterococcus faecalis, Vancomycin resistant Enterococcus faecalis, Enterococcus faecium, Vancomycin resistant Enterococcus faecium were used.

Assay [2] concerns S. aureus^MS. The experiment in a line: MIC by broth microdilution (aerobic pathogens), test strain 2. It is filed as cell-based. Conditions: Staphylococcus aureus. The procedure, abridged:
as §1

The subject of another assay is C. difficile 161. The experiment in a line: MIC by agar dilution against Clostridioides difficile, test strain 16. Type of assay: cell-based. Conditions: test strain 16, C. difficile 161, anaerobic, agar dilution, read-out: MIC.
[3] abbreviates: test strain 9, E. faecalis^LinR (linezolid resistant), read-out: MIC.
[4] abbreviates: test strain 21, M. avium, resazurin, read-out: MIC.
The mark [5] stands for this setting: test strain 23, M. abscessus, resazurin, read-out: MIC.
Where [6] appears, read: test strain 22, M. intracelluare, resazurin, read-out: MIC.
Setting [7] is: test strain 5, S. epidermis, read-out: MIC.
The mark [8] stands for this setting: test strain 7, E. faecalis, read-out: MIC.
The mark [9] stands for this setting: test strain 10, E. faecium, read-out: MIC.
Where [10] appears, read: test strain 6, S. epidermis^MR (methicillin resistant), read-out: MIC.
Where [11] appears, read: test strain 1, S. aureus^MS, read-out: MIC.
Where [12] appears, read: test strain 2, S. aureus^MS, read-out: MIC.
Where [13] appears, read: test strain 12, E. faecium^LinR (linezolid resistant), read-out: MIC.

Take `C/C=C1\NC(=O)[C@H]([C@@H](C)O)NC(=O)c2csc(n2)-c2ccc(-c3nc(-c4nc(C(=O)NC5(C(=O)NCCN6C(=O)CNC6=O)CC5)cs4)cs3)nc2-c2csc(n2)[C@H]([C@@H](C)O)NC(=O)c2csc(n2)[C@H](C(C)C)NC(=O)c2csc1n2` [Compound 5]: the MIC came to 0.5 µg/mL (≈ 0.412 µM) with E. faecalis^LinR; 1 µg/mL (≈ 0.825 µM) in the assay on C. difficile 173 (173); 0.5 µg/mL (≈ 0.412 µM) in the assay on E. faecalis^VanA; 0.5 µg/mL (≈ 0.412 µM) with C. difficile 152 (152); 0.043 µg/mL (≈ 0.0355 µM) in the assay on M. avium; 1 µg/mL (≈ 0.825 µM) in the assay with C. difficile 9689 (9689). In addition, the MIC in the assay on C. difficile 174 (174) was determined as 0.25 µg/mL (≈ 0.206 µM); against C. difficile 181 it was 0.125 µg/mL (≈ 0.103 µM); with M. abscessus, 0.504 µg/mL (≈ 0.416 µM); against C. difficile 159 it was 1 µg/mL (≈ 0.825 µM); with M. intracelluare, 0.155 µg/mL (≈ 0.128 µM); in the assay on S. epidermis, 0.5 µg/mL (≈ 0.412 µM). In addition, the MIC against S. aureus^VR worked out at 1 µg/mL (≈ 0.825 µM); in the assay with E. faecalis it was 0.25 µg/mL (≈ 0.206 µM); with E. faecium, 1 µg/mL (≈ 0.825 µM); in the assay with S. epidermis^MR, 0.5 µg/mL (≈ 0.412 µM); against S. aureus^MS [1] it was 0.25 µg/mL (≈ 0.206 µM); against E. faecium^LinR it was 0.5 µg/mL (≈ 0.412 µM). Besides, the results for the MIC in the assay on S. aureus^MR and with S. aureus^MS [2] were 1 µg/mL (≈ 0.825 µM) and 0.25 µg/mL (≈ 0.206 µM), respectively.

Regarding `C/C=C1\NC(=O)[C@H]([C@@H](C)O)NC(=O)c2csc(n2)-c2ccc(-c3nc(-c4nc(C(=O)NC5(C(=O)NCCCN6CCSCC6)CC5)cs4)cs3)nc2-c2csc(n2)[C@H]([C@@H](C)O)NC(=O)c2csc(n2)[C@H](C(C)C)NC(=O)c2csc1n2` [Compound 18], the MIC in the assay with E. faecalis^LinR (setting [3]) came to 0.5 µg/mL (≈ 0.407 µM); in the assay on C. difficile 173 (test strain 17, C. difficile 173, anaerobic, agar dilution, read-out: MIC) it was 1 µg/mL (≈ 0.813 µM); in the assay with C. difficile 152 (test strain 14, C. difficile 152, anaerobic, agar dilution, read-out: MIC) it was 0.25 µg/mL (≈ 0.203 µM); in the assay with M. avium (setting [4]) it was 0.082 µg/mL (≈ 0.0667 µM); with C. difficile 9689 (test strain 13, C. difficile 9689, anaerobic, agar dilution, read-out: MIC), 0.5 µg/mL (≈ 0.407 µM); in the assay with C. difficile 174 (test strain 18, C. difficile 174, anaerobic, agar dilution, read-out: MIC) it was 0.25 µg/mL (≈ 0.203 µM). The MIC in the assay on M. abscessus (setting [5]) came to 0.173 µg/mL (≈ 0.141 µM); in the assay on M. intracelluare (setting [6]), 0.127 µg/mL (≈ 0.103 µM); with S. epidermis (setting [7]), 0.5 µg/mL (≈ 0.407 µM); with E. faecalis (setting [8]) it was 1 µg/mL (≈ 0.813 µM); in the assay with E. faecium (setting [9]), 1 µg/mL (≈ 0.813 µM); in the assay on S. epidermis^MR (setting [10]), 1 µg/mL (≈ 0.813 µM). Besides, the MIC turned out to be 0.25 µg/mL (≈ 0.203 µM) with S. aureus^MS [1] (setting [11]), 1 µg/mL (≈ 0.813 µM) in the assay with S. aureus^MS [2] (setting [12]) and 1 µg/mL (≈ 0.813 µM) with C. difficile 161.

On to `C/C=C1\NC(=O)[C@H]([C@@H](C)O)NC(=O)c2csc(n2)-c2ccc(-c3nc(-c4nc(C(=O)NC5(C(=O)NCCN6CCN(C)CC6)CC5)cs4)cs3)nc2-c2csc(n2)[C@H]([C@@H](C)O)NC(=O)c2csc(n2)[C@H](C(C)C)NC(=O)c2csc1n2` [Compound 4], for which the MIC was 1 µg/mL (≈ 0.825 µM) in the assay with E. faecalis^LinR (setting [3]); 0.5 µg/mL (≈ 0.412 µM) with E. faecalis^VanA (test strain 8, E. faecalis^VanA (vancomycin resistant), read-out: MIC); 0.115 µg/mL (≈ 0.0948 µM) in the assay with M. avium; 0.157 µg/mL (≈ 0.129 µM) against M. abscessus; 0.143 µg/mL (≈ 0.118 µM) against M. intracelluare; 0.25 µg/mL (≈ 0.206 µM) against S. epidermis. Besides, the MIC with S. aureus^VR (test strain 4, S. aureus^VR (vancomycin resistant), read-out: MIC) stood at 1 µg/mL (≈ 0.825 µM); in the assay with E. faecalis it was 0.25 µg/mL (≈ 0.206 µM); in the assay on E. faecium (setting [9]), 0.5 µg/mL (≈ 0.412 µM); in the assay with S. epidermis^MR (setting [10]), 0.5 µg/mL (≈ 0.412 µM); with S. aureus^MS [1] (setting [11]), 0.5 µg/mL (≈ 0.412 µM); in the assay with E. faecium^LinR (setting [13]), 1 µg/mL (≈ 0.825 µM). Moreover, the MIC was determined as 1 µg/mL (≈ 0.825 µM) in the assay on S. aureus^MR (test strain 3, S. aureus^MR (methicillin resistant), read-out: MIC) and 0.5 µg/mL (≈ 0.412 µM) with S. aureus^MS [2] (setting [12]).

On to `C/C=C1\NC(=O)[C@H]([C@@H](C)O)NC(=O)c2csc(n2)-c2ccc(-c3nc(-c4nc(C(=O)NC5(C(=O)NCCN6CCN(C(C)C)CC6)CC5)cs4)cs3)nc2-c2csc(n2)[C@H]([C@@H](C)O)NC(=O)c2csc(n2)[C@H](C(C)C)NC(=O)c2csc1n2` [Compound 35], for which the MIC in the assay on E. faecalis^LinR (setting [3]) came out at 1 µg/mL (≈ 0.806 µM); in the assay on M. avium (setting [4]) it was 0.109 µg/mL (≈ 0.0879 µM); in the assay with M. abscessus (setting [5]), 0.123 µg/mL (≈ 0.0991 µM); with M. intracelluare (setting [6]) it was 0.139 µg/mL (≈ 0.112 µM); with S. epidermis (setting [7]), 0.25 µg/mL (≈ 0.202 µM); in the assay on E. faecalis (setting [8]) it was 0.5 µg/mL (≈ 0.403 µM). The MIC with S. epidermis^MR (setting [10]) amounted to 0.5 µg/mL (≈ 0.403 µM); in the assay on S. aureus^MS [1] (setting [11]), 0.5 µg/mL (≈ 0.403 µM); in the assay on E. faecium^LinR (setting [13]), 1 µg/mL (≈ 0.806 µM).

The term MIC denotes the lowest concentration found to suppress growth.
